Earlier results in patent publication US10563263B2, “Genetic polymorphisms associated with statin response and cardiovascular diseases, methods of detection and uses thereof” (CELERA CORPORATION, priority 2010, dated 2020).

Test system: major cardiovascular events
Conditions: JUPITER Study, 17,802 individuals (Ridker et al. 2008); cited from earlier work

SMILES: CC(C)c1nc(N(C)S(C)(=O)=O)nc(-c2ccc(F)cc2)c1/C=C/[C@@H](O)C[C@@H](O)CC(=O)O [rosuvastatin]
- incidence of major cardiovascular events (MI, stroke, arterial revascularization, hospitalization for unstable angina, death from cardiovascular causes): significantly reduced the incidence of major cardiovascular events
